Assay results from US20070010671A1, “Novel quinazoline derivatives and methods of treatment related to the use thereof” (priority 2003, published 2007).

Target: MCH receptor (Homo sapiens, UniProt Q99705)
Assay: High throughput functional screening FLIPR/FDSS6000: inhibition of MCH-evoked intracellular Ca2+ changes
Format: cell-based
Details: class by percent of control at 10^-7 M or IC50
Method in brief: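 In a kinetic calcium-flux format, compounds were tested at various concentrations against 50 nM MCH. Fluo4-loaded cells expressing a constitutively active, non-endogenous receptor were imaged at 488/530 nm for 290 s after agonist addition.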

SMILES	class
CN(C)c1nc(N[C@H]2CC[C@@H](CNC(=O)Nc3ccc4ccccc4c3)CC2)nc2ccccc12 [compound 511]	3 (Class 3: The value of percent of control at 10^−7 M was more than 60% or the value of IC50 was more than 200 nM.)
CN(C)c1nc(N[C@H]2CC[C@@H](NC(=O)Nc3ccc(C(C)(C)C)cc3)CC2)nc2ccccc12 [compound 345]	3 (Class 3: The value of percent of control at 10^−7 M was more than 60% or the value of IC50 was more than 200 nM.)
CCOc1ccc(NC(=O)NC[C@H]2CC[C@@H](Nc3nc(N(C)C)c4ccccc4n3)CC2)cc1 [compound 550]	3 (Class 3: The value of percent of control at 10^−7 M was more than 60% or the value of IC50 was more than 200 nM.)
CCc1cccc(NC(=O)NC[C@H]2CC[C@@H](Nc3nc(N(C)C)c4ccccc4n3)CC2)c1 [compound 531, N-[(cis-4-{[4-(dimethylamino)quinazolin-2-yl]amino}cyclohexyl)methyl]-N′-(3-ethylphenyl)urea]	2 (Class 2: The value of percent of control at 10^−7 M was from 40% to 60% or the value of IC50 was from 50 nM to 200 nM.)
CCN(CC)CCCNC(=S)N[C@H]1CC[C@@H](Nc2nc(N(C)C)c3ccccc3n2)CC1 [compound 387]	3 (Class 3: The value of percent of control at 10^−7 M was more than 60% or the value of IC50 was more than 200 nM.)
CN(C)c1ccc(NC(=O)NC[C@H]2CC[C@@H](Nc3nc(N(C)C)c4ccccc4n3)CC2)cc1 [compound 772]	3 (Class 3: The value of percent of control at 10^−7 M was more than 60% or the value of IC50 was more than 200 nM.)
CN(C)c1nc(N[C@H]2CC[C@@H](CNC(=O)Nc3ccc(Cl)c(Cl)c3)CC2)nc2ccccc12 [compound 421, N-(3,4-dichlorophenyl)-N′-[(cis-4-{[4-(dimethylamino)quinazolin-2-yl]amino}cyclohexyl)methyl]urea]	2 (Class 2: The value of percent of control at 10^−7 M was from 40% to 60% or the value of IC50 was from 50 nM to 200 nM.)
CN(C)c1nc(N[C@H]2CC[C@@H](NC(=O)Nc3ccc(OC(F)(F)F)cc3)CC2)nc2ccccc12 [compound 332]	3 (Class 3: The value of percent of control at 10^−7 M was more than 60% or the value of IC50 was more than 200 nM.)
COc1cc(NC(=S)N[C@H]2CC[C@@H](Nc3nc(N(C)C)c4ccccc4n3)CC2)cc(OC)c1 [compound 259]	2 (Class 2: The value of percent of control at 10^−7 M was from 40% to 60% or the value of IC50 was from 50 nM to 200 nM.)
CN(C)c1nc(N[C@H]2CC[C@@H](CNC(=O)Nc3cccc(Cl)c3Cl)CC2)nc2ccccc12 [compound 425, N-(2,3-dichlorophenyl)-N′-[(cis-4-{[4-(dimethylamino)quinazolin-2-yl]amino}cyclohexyl)methyl]urea]	1 (Class 1: The value of percent of control at 10^−7 M was less than 40% or the value of IC50 was less than 50 nM.)
CN(C)c1nc(N[C@H]2CC[C@@H](NC(=S)Nc3ccc(N4CCOCC4)nc3)CC2)nc2ccccc12 [compound 403]	3 (Class 3: The value of percent of control at 10^−7 M was more than 60% or the value of IC50 was more than 200 nM.)
CN(C)c1nc(N[C@H]2CC[C@@H](CNC(=O)Nc3ccccc3[N+](=O)[O-])CC2)nc2ccccc12 [compound 512, N-[(cis-4-{[4-(dimethylamino)quinazolin-2-yl]amino}cyclohexyl)methyl]-N′-(2-nitrophenyl)urea]	2 (Class 2: The value of percent of control at 10^−7 M was from 40% to 60% or the value of IC50 was from 50 nM to 200 nM.)
COc1ccccc1NC(=O)NC[C@H]1CC[C@@H](Nc2nc(N(C)C)c3ccccc3n2)CC1 [compound 446, N-[(cis-4-{[4-(dimethylamino)quinazolin-2-yl]amino}cyclohexyl)methyl]-N′-(2-methoxyphenyl)urea]	2 (Class 2: The value of percent of control at 10^−7 M was from 40% to 60% or the value of IC50 was from 50 nM to 200 nM.)
CN(C)c1nc(N[C@H]2CC[C@@H](NC(=S)Nc3ccc(SC(F)(F)F)cc3)CC2)nc2ccccc12 [compound 232]	3 (Class 3: The value of percent of control at 10^−7 M was more than 60% or the value of IC50 was more than 200 nM.)
CN(C)c1nc(N[C@H]2CC[C@@H](NC(=O)Nc3ccc(-c4ccccc4)s3)CC2)nc2ccccc12 [compound 348]	3 (Class 3: The value of percent of control at 10^−7 M was more than 60% or the value of IC50 was more than 200 nM.)
CN(C)c1nc(N[C@H]2CC[C@@H](CNC(=O)Nc3cc(Cl)ccc3[N+](=O)[O-])CC2)nc2ccccc12 [compound 566]	3 (Class 3: The value of percent of control at 10^−7 M was more than 60% or the value of IC50 was more than 200 nM.)
CN(C)c1nc(N[C@H]2CC[C@@H](NC(=S)NC3CCCCCCC3)CC2)nc2ccccc12 [compound 287, N-cyclooctyl-N′-(cis-4-{[4-(dimethylamino)quinazolin-2-yl]amino}cyclohexyl)thiourea]	2 (Class 2: The value of percent of control at 10^−7 M was from 40% to 60% or the value of IC50 was from 50 nM to 200 nM.)
COc1cc(NC(=S)NC[C@H]2CC[C@@H](Nc3nc(N(C)C)c4ccccc4n3)CC2)cc(OC)c1 [compound 683]	3 (Class 3: The value of percent of control at 10^−7 M was more than 60% or the value of IC50 was more than 200 nM.)
C=C(C)c1cccc(C(C)(C)NC(=O)NC[C@H]2CC[C@@H](Nc3nc(N(C)C)c4ccccc4n3)CC2)c1 [compound 441]	2 (Class 2: The value of percent of control at 10^−7 M was from 40% to 60% or the value of IC50 was from 50 nM to 200 nM.)
CN(C)c1nc(N[C@H]2CC[C@@H](CNC(=S)Nc3ccc(Oc4ccc([N+](=O)[O-])cc4)cc3)CC2)nc2ccccc12 [compound 740]	3 (Class 3: The value of percent of control at 10^−7 M was more than 60% or the value of IC50 was more than 200 nM.)
CN(C)c1nc(N[C@H]2CC[C@@H](NC(=S)Nc3cccc(Cl)c3Cl)CC2)nc2ccccc12 [compound 210]	3 (Class 3: The value of percent of control at 10^−7 M was more than 60% or the value of IC50 was more than 200 nM.)
CC(C)CNC(=S)NC[C@H]1CC[C@@H](Nc2nc(N(C)C)c3ccccc3n2)CC1 [compound 602, N-[(cis-4-{[4-(dimethylamino)quinazolin-2-yl]amino}cyclohexyl)methyl]-N′-isobutylthiourea]	2 (Class 2: The value of percent of control at 10^−7 M was from 40% to 60% or the value of IC50 was from 50 nM to 200 nM.)
CN(C)c1nc(N[C@H]2CC[C@@H](CNC(=S)Nc3cc(Cl)c(Cl)c(Cl)c3Cl)CC2)nc2ccccc12 [compound 667]	3 (Class 3: The value of percent of control at 10^−7 M was more than 60% or the value of IC50 was more than 200 nM.)

Same assay, conditions: class by percent of control at 10^-7 M or by IC50; read-out: class

IC50	SMILES
< 50 nM	CSc1ccc(NC(=O)N[C@H]2CC[C@@H](Nc3nc(N(C)C)c4ccccc4n3)CC2)cc1 [compound 47, N-(cis-4-{[4-(dimethylamino)quinazolin-2-yl]amino}cyclohexyl)-N′-[4-(methylthio)phenyl]urea]
> 200 nM	CN(C)c1nc(N[C@H]2CC[C@@H](NC(=O)Nc3ccc(Cl)c(Cl)c3)CC2)nc2ccccc12 [compound 20]
> 200 nM	Cc1ccccc1NC(=S)N[C@H]1CC[C@@H](Nc2nc(N(C)C)c3ccccc3n2)CC1 [compound 198]
< 50 nM	COc1ccc(NC(=S)N[C@H]2CC[C@@H](Nc3nc(N(C)C)c4ccccc4n3)CC2)c(OC)c1 [compound 166]
< 50 nM	CN(C)c1nc(N[C@H]2CC[C@@H](NC(=O)NCc3ccccc3Cl)CC2)nc2ccccc12 [compound 91, N-(2-chlorobenzyl)-N′-(cis-4-{[4-(dimethylamino)quinazolin-2-yl]amino}cyclohexyl)urea]
> 200 nM	CNC(=S)N[C@H]1CC[C@@H](Nc2nc(N(C)C)c3ccccc3n2)CC1 [compound 186]
> 200 nM	COC(=O)NC[C@H]1CC[C@@H](Nc2nc(N(C)C)c3ccccc3n2)CC1 [compound 882]
< 50 nM	CCOc1ccccc1NC(=O)N[C@H]1CC[C@@H](Nc2nc(N(C)C)c3ccccc3n2)CC1 [compound 93, N-(cis-4-{[4-(dimethylamino)quinazolin-2-yl]amino}cyclohexyl)-N′-(2-ethoxyphenyl)urea]
50 to 200 nM	CN(C)c1nc(N[C@H]2CC[C@@H](CNC(=O)OCc3ccccc3Cl)CC2)nc2ccccc12 [compound 883]
> 200 nM	CN(C)c1nc(N[C@H]2CC[C@@H](CNC(=S)Nc3ccc(Oc4ccccc4)nc3)CC2)nc2ccccc12 [compound 821]
> 200 nM	CN(C)c1nc(N[C@H]2CC[C@@H](NC(=S)Nc3cccc(Br)c3)CC2)nc2ccccc12 [compound 157, N-(3-bromopheny)-N′-(cis-4-{[4-(dimethylamino)quinazolin-2-yl]amino}cyclohexyl)thiourea]

Same assay, conditions: class by percent of control at 10^−7 M or by IC50; read-out: class

IC50	SMILES
< 50 nM	CN(C)c1nc(N[C@H]2CC[C@@H](NC(=O)c3cccnc3Oc3ccccc3Br)CC2)nc2ccccc12 [Example 1032, 2-(2-bromophenoxy)-N-(cis-4-{[4-(dimethylamino)quinazolin-2-yl]amino}cyclohexyl)nicotinamide]
50 to 200 nM	CN(C)c1nc(N[C@H]2CC[C@@H](CNC(=O)Nc3cccc(Cl)c3)CC2)nc2ccccc12 [Example 1022, N-(3-chlorophenyl)-N′-[(cis-4-{[4-(dimethylamino)quinazolin-2-yl]amino}cyclohexyl)methyl]urea]
< 50 nM	CN(C)c1nc(N[C@H]2CC[C@@H](CNC(=O)Nc3cc(Cl)cc(Cl)c3)CC2)nc2ccccc12 [Example 1024, N-(3,5-dichlorophenyl)-N′-[(cis-4-{[4-(dimethylamino)quinazolin-2-yl]amino}cyclohexyl)methyl]urea]
< 50 nM	CN(C)c1nc(N[C@H]2CC[C@@H](NC(=O)c3ccc(F)c(F)c3)CC2)nc2cc(F)c(F)cc12 [Example 1209, N-(cis-4-{[4-(dimethylamino)-6,7-difluoroquinazolin-2-yl]amino}cyclohexyl)-3,4-difluorobenzamide]
